target: Carbonic anhydrase 2 [F130V] (Homo sapiens, UniProt P00918, F130V); assay: In vitro binding of inhibitor to hCA-II; details: pH 7.4; 37 °C
Description: Inhibitor binding to CA II was determined using a fluorescence competition assay. Displacement of dansylamide and binding of the inhibitor was determined by measuring and comparing the average fluorescence intensities of the treated versus control reactions. Binding constants were estimated from a Dixon plot of the data (reciprocal of the average fluorescence intensity versus inhibitor concentration)

**Q.** For `NS(=O)(=O)c1ccc(C(=O)NCc2c(F)c(F)c(F)c(F)c2F)cc1` [N-[(2,3,4,5,6-pentafluorophenyl)methyl]-4-sulfamoylbenzamide], which Kd is on record?
**A.** 2 nM

**Q.** With `NS(=O)(=O)c1ccc(C(=O)NCc2cccc(F)c2F)cc1` [N-[(2,3-difluorophenyl)methyl]-4-sulfamoylbenzamide] as the molecule, how does the Kd read?
**A.** 1.6 nM

**Q.** With `NS(=O)(=O)c1ccc(C(=O)NCc2ccccc2F)cc1` [N-[(2-fluorophenyl)methyl]-4-sulfamoylbenzamide] as the molecule, how does the Kd read?
**A.** 2.3 nM

**Q.** Which Kd does the source give for `NS(=O)(=O)c1ccc(C(=O)NCc2c(F)cccc2F)cc1` [N-[(2,6-difluorophenyl)methyl]-4-sulfamoylbenzamide] here?
**A.** 3.9 nM

From BindingDB's records for doi:10.1021/ja011034p (University of Pennsylvania, 2001)
